The record followed here is the Kinase Knowledgebase extract (Sharma et al. 2016).

The target in the experiment is PIK3CG (human) (UniProt P48736). Briefly: Inhibition of PIK3CG Kinase Activity.
Chain of PIK3CG (human) (P48736 whole entry, looked up): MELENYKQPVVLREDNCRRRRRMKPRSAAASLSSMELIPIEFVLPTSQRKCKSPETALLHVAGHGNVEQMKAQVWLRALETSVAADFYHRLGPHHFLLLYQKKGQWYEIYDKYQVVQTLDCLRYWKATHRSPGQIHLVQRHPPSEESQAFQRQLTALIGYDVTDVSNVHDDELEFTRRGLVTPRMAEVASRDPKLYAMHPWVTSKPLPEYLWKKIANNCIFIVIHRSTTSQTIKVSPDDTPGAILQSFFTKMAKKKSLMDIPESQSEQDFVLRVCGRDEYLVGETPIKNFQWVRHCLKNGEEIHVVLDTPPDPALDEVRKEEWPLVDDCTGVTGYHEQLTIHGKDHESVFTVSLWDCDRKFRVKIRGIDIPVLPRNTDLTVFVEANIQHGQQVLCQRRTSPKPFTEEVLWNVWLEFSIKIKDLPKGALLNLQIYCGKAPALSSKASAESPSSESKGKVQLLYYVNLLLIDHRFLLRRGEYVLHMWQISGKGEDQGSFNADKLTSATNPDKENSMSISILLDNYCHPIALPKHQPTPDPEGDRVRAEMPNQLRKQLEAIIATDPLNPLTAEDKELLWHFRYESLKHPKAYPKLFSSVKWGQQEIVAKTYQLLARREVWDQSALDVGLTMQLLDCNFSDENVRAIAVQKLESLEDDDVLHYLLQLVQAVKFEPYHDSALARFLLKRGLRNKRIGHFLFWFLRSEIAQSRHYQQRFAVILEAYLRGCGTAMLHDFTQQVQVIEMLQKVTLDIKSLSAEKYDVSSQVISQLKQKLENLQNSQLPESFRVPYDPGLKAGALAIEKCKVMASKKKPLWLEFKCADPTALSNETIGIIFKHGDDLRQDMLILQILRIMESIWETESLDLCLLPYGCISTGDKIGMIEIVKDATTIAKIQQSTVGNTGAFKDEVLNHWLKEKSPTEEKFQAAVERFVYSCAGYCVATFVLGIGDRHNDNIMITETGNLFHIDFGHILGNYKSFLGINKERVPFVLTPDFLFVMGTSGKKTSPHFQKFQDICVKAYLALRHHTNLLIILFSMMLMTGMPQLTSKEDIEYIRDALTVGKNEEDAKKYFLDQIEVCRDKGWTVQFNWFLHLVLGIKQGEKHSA

Molecule `COc1cc(-c2cc(C)c3c(c2)CN(c2cnn([C@H](CO)C(F)(F)F)c2)C3=O)cnc1OC` had a Ki of less than 100 nM.

`Cc1cc(-c2cncc(OC(F)F)c2)nc2c1C(=O)N(c1cnn(C(C)(C)C#N)c1)C2C` (stereo not given) had a Ki of less than 100 nM. `COc1cc(-c2ccc3c(n2)[C@H](N2CCOCC2)N(c2cnn(CC(F)(F)F)c2)C3=O)cnc1OC` registered a Ki of less than 100 nM. Under `Cc1cc(-c2cncc(OC3CC3)c2)nc2c1C(=O)N(c1cnn(CC(F)(F)F)c1)C2(C)C` stands less than 100 nM; under `CCn1cc(N2Cc3cc(-c4cnc(OC)nc4OC)ccc3C2=O)cn1`, 100 to 490 nM.

As for `CCOc1cc(-c2cc(C)c3c(c2)CN(c2cnn(CC#N)c2)C3=O)cnc1OCC`, the Ki was less than 100 nM. As for `COc1cc(-c2ccc3c(n2)[C@H](C)N(c2cn(CC(F)(F)F)cn2)C3=O)cnc1OC`, the figure is less than 100 nM; as for `Cc1cc(-c2cncc(OC(F)F)c2)nc2c1C(=O)N(c1cnn(C)c1)C2`, less than 100 nM.

Turning to `COc1cncc(-c2cc(C)c3c(n2)C2(CCC2)N(c2cnn(CC(F)(F)F)c2)C3=O)c1`, the Ki is less than 100 nM. Molecule `COc1cc(-c2ccc3c(n2)CN(c2cnn([C@H](C)C#N)c2)C3=O)cnc1OC` had a Ki of less than 100 nM.

`Cc1cc(-c2cncc(C(=O)N3CCC[C@@H]3C)c2)nc2c1C(=O)N(c1cnn(CC(F)(F)F)c1)C2(C)C` showed an inhibition constant Ki of 100 to 490 nM. Regarding `COc1cc(-c2cc(C)c3c(n2)CN(c2ncccn2)C3=O)cnc1OC`, the Ki was 100 to 490 nM. Under `COc1cc(-c2cc(C)c3c(c2)CN(c2cnn(CC#N)c2)C3=O)cnc1OC` stands less than 100 nM; under `CCOCCCOc1cc(-c2cc(C)c3c(n2)CN(c2cnn(CC(F)(F)F)c2)C3=O)cnc1OC`, less than 100 nM.

In turn, `CCc1cc(N2Cc3nc(-c4cnc(OC)c(OC)c4)ccc3C2=O)n[nH]1` registered a Ki of 100 to 490 nM. On to `CCOc1ncc(-c2cc(C)c3c(n2)C2(CCCO2)N(c2ccn(CC)n2)C3=O)cc1OC` (stereo not given), for which the Ki was in the range of 100 to 490 nM.

`COc1cc(-c2ccc3c(n2)CN(c2ccnc(N(C)CCCN(C)C)c2)C3=O)cnc1OC` returned a Ki of 100 to 490 nM.

Molecule `COc1cc(-c2cc(C)c3c(n2)C(C)N(c2cnn(CC(F)F)c2)C3=O)cnc1OC` (stereo not given) gave a Ki of less than 100 nM. As for `COc1cc(-c2cc(C)c3c(n2)[C@@](C)(O)N(c2cnn(CC(F)(F)F)c2)C3=O)cnc1OC`, the figure is less than 100 nM; as for `COCCOc1ncc(-c2cc(C)c3c(n2)[C@H](C)N(c2ccn(C)n2)C3=O)cc1OC`, less than 100 nM. The molecule `Cc1cc(-c2cncc(C(=O)O)c2)nc2c1C(=O)N(c1cnn(CC(F)(F)F)c1)C2C` (stereo not given) showed a Ki of less than 100 nM.

Regarding `COc1ncc(-c2cc(C)c3c(n2)C(C)N(c2cnn(CC(F)(F)F)c2)C3=O)cc1C(=O)O` (stereo not given), the Ki was less than 100 nM. `COc1cc(-c2ccc3c(n2)CN(c2cnn(CCN4CCN(C(C)=O)CC4)c2)C3=O)cnc1OC` gave a Ki of 100 to 490 nM.

`COc1cc(-c2ccc3c(n2)CN(c2cnn(CCC(=O)O)c2)C3=O)cnc1OC` showed a Ki of less than 100 nM. As for `C=CCNC(=O)c1cncc(-c2cc(C)c3c(n2)C(C)(C)N(c2cnn(CC(F)(F)F)c2)C3=O)c1`, the figure is less than 100 nM; as for `COc1cc(-c2ccc3c(c2)CN(c2cc(C)n(C)n2)C3=O)cnc1OC`, 100 to 490 nM; as for `COc1cncc(-c2cc(C)c3c(n2)C(C)(C)N(c2ccn(CC(C)(C)O)n2)C3=O)c1`, 100 to 490 nM. Under `COc1cc(-c2ccc3c(c2)CN(c2csc(C)c2)C3=O)cnc1OC` stands 100 to 490 nM; under `CC[C@]1(OC)c2nc(-c3cnc(OC)c(OC)c3)cc(C)c2C(=O)N1c1cnn(CC(F)(F)F)c1`, less than 100 nM.

In the case of `COc1cc(-c2cc(Cl)c3c(n2)CN(c2cnn(CC#N)c2)C3=O)cnc1OC`, the Ki was less than 100 nM. As to `COc1cc(-c2cc(C)c3c(n2)[C@@](C)(OC)N(c2cnn(CC(F)(F)F)c2)C3=O)cnc1OC`, the Ki was less than 100 nM.

As for `COc1ncc(-c2cc(C)c3c(c2)C(C)N(c2cnn(CC(F)(F)F)c2)C3=O)nc1OC` (stereo not given), the Ki is less than 100 nM.

In turn, `COc1cc(-c2ccc3c(n2)CN(c2cncc(CN4CCOCC4)c2)C3=O)cnc1OC` had a Ki of 100 to 490 nM. In the case of `COc1cc(-c2cc(C)c3c(n2)CN(c2nccs2)C3=O)cnc1OC`, the Ki is less than 100 nM.

With `CCOc1ncc(-c2ccc3c(n2)C(C)N(c2cnn(CC(F)(F)F)c2)C3=O)cc1OC` (stereo not given), the Ki is less than 100 nM. As for `CCc1cc(-c2cnc(OC)c(OC)c2)nc2c1C(=O)N(c1cnn(CC(F)(F)F)c1)C2`, the figure is less than 100 nM. Regarding `COc1cncc(-c2cc(C)c3c(n2)CN(c2ccn([C@H]4CCOC4)n2)C3=O)c1`, the Ki was less than 100 nM. Turning to `Cc1cc(-c2cncc(C(F)(F)F)c2)cc2c1C(=O)N(c1cnn(CC(F)(F)F)c1)C2C` (stereo not given), the Ki was less than 100 nM. As for `COc1cc(-c2ccc3c(n2)CN(c2cnn(CC4CNC(=O)O4)c2)C3=O)cnc1OC` (stereo not given), the figure is less than 100 nM; as for `COc1cc(N2Cc3nc(-c4cnc(OC)c(OC)c4)cc(C)c3C2=O)ccn1`, less than 100 nM; as for `CCn1cnc(N2Cc3cc(-c4cnc(OC)c(OC)c4)ccc3C2=O)n1`, less than 100 nM. Under `COc1cc(-c2ccc3c(n2)CN(c2ccc(=O)n(CC4OCCO4)c2)C3=O)cnc1OC` stands 100 to 490 nM; under `CCC1(OC)c2nc(-c3cnc(OC)c(OC)c3)cc(C)c2C(=O)N1c1cnn(CC(F)(F)F)c1` (stereo not given), less than 100 nM. Under `COc1cc(-c2ccc3c(n2)C(N2CC(OC)C2)N(c2cnn(CC(F)(F)F)c2)C3=O)cnc1OC` (stereo not given) stands 100 to 490 nM. The molecule `Cc1cc(-c2cnc3ccccc3c2)nc2c1C(=O)N(c1cn[nH]c1)C2` returned a Ki of 100 to 490 nM.

Consider `Cc1cc(-c2cncc(Cl)c2)nc2c1C(=O)N(c1cnn(CC#N)c1)C2`, for which the Ki was less than 100 nM. For `COc1cc(-c2ccc3c(n2)CN(c2ccc(OCCCC(F)(F)F)nc2)C3=O)cnc1OC`, the Ki is less than 100 nM. As to `COc1cc(-c2cc(C)c3c(n2)CN(c2ccnc(OC(F)F)c2)C3=O)cnc1OC`, the Ki is less than 100 nM. In turn, `COc1ncc(-c2cc(C)c3c(n2)CN(c2cnn(CC(F)(F)F)c2)C3=O)cc1OC1CCOCC1` gave an inhibition constant Ki of less than 100 nM. For `CCn1cc(N2C(=O)c3c(C)cc(-c4cncc(OC(F)F)c4)nc3[C@H]2C)cn1`, the Ki was less than 100 nM. Take `COc1cc(-c2cc(C)c3c(n2)[C@](C)(OC)N(c2cnn(CC(F)(F)F)c2)C3=O)cnc1OC`: the Ki was less than 100 nM. Under `COc1cc(-c2cc(C)c3c(n2)C(C)(C)N(c2cnn(CC(F)(F)F)c2)C3=O)cnc1OC(C)C` stands less than 100 nM.

The molecule `COc1cc(-c2ccc3c(n2)CN(c2ccc(=O)n(CC4COCCO4)c2)C3=O)cnc1OC` (stereo not given) displayed a Ki of less than 100 nM. As for `COc1cc(-c2ccc3c(c2)CN(c2cnn(CC(F)F)c2)C3=O)cnc1OC`, the figure is less than 100 nM; as for `C#CCNC(=O)c1cncc(-c2cc(C)c3c(n2)C(C)N(c2cnn(CC(F)(F)F)c2)C3=O)c1` (stereo not given), less than 100 nM. As for `Cc1cc(-c2cncc(OC(F)F)c2)nc2c1C(=O)N(c1cnn(C[C@H](C)O)c1)[C@@H]2C`, the figure is less than 100 nM; as for `COc1cc(-c2cc(C)c3c(n2)C(OCC(F)(F)F)N(c2cnn(CC(F)(F)F)c2)C3=O)cnc1OC` (stereo not given), less than 100 nM; as for `COc1cc(-c2ccc3c(c2)CN(c2cccnc2)C3=O)cnc1OC`, 100 to 490 nM. In the case of `COc1cc(-c2ccc3c(n2)CN(c2cnn([C@H](CO)C(F)(F)F)c2)C3=O)cnc1OC`, the Ki is less than 100 nM. As for `COc1cc(-c2cc(C3CC3)c3c(n2)CN(c2cnn(CC(F)(F)F)c2)C3=O)cnc1OC`, the figure is less than 100 nM; as for `COc1ncc(-c2ccc3c(n2)CN(c2cnn(C(C)(C)C#N)c2)C3=O)cc1OC(F)F`, less than 100 nM; as for `COc1cc(-c2cc(C)c3c(n2)CN(c2cncc(CC#N)c2)C3=O)cnc1OC`, less than 100 nM. `COc1cc(-c2ccc3c(n2)[C@H](C)N(c2cc[nH]n2)C3=O)cnc1OC` had a Ki of less than 100 nM.

In turn, `Cc1cc(-c2cncc(CO)c2)nc2c1C(=O)N(c1cc[nH]n1)C2` gave a Ki of 100 to 490 nM.

Molecule `CCOc1cncc(-c2cc(C)c3c(n2)C(C)(C)N(c2cnn(COCCOC)c2)C3=O)c1` registered a Ki of 100 to 490 nM. Under `COc1cncc(-c2cc(C)c3c(n2)C(C)N(c2ccn(CC(C)(C)O)n2)C3=O)c1` (stereo not given) stands less than 100 nM; under `COc1cc(-c2ccc3c(n2)[C@H](C)N(c2ccn(C[C@H](C)O)n2)C3=O)cnc1OC`, less than 100 nM; under `COc1cncc(-c2cc(C)c3c(n2)CN(c2ccn(C4COC4)n2)C3=O)c1`, less than 100 nM. In turn, `COc1cc(-c2cc(C)c3c(n2)C2(CC2)N(c2cnn(CC(F)(F)F)c2)C3=O)cnc1OC(C)C` registered a Ki of less than 100 nM. As to `COc1cc(-c2ccc3c(n2)CN(c2ccon2)C3=O)cnc1O`, the inhibitory constant (Ki) lay within 100 to 490 nM. The molecule `COc1ncc(-c2cc(C)c3c(n2)CN(c2cnn(C(C)(C)C#N)c2)C3=O)cc1OCC1CC1` displayed a Ki of less than 100 nM. Under `CCc1cncc(-c2cc(C)c3c(n2)C(C)(C)N(c2cnn(CC(F)(F)F)c2)C3=O)c1` stands less than 100 nM; under `COc1cc(-c2ccc3c(n2)C(OC)N(c2cnn(CC(F)(F)F)c2)C3=O)cnc1OC` (stereo not given), less than 100 nM; under `COc1cncc(-c2cc(C)c3c(n2)C2(CCOC2)N(c2cnn(CC(F)(F)F)c2)C3=O)c1` (stereo not given), less than 100 nM. Molecule `Cc1cc(-c2cncc(OC(F)F)c2)nc2c1C(=O)N(c1cnn(CC(F)(F)F)c1)C2C` (stereo not given) showed a Ki of less than 100 nM. As for `Cc1cc(-c2cncc(C#N)c2)nc2c1C(=O)N(c1cnn(CC#N)c1)C2`, the figure is less than 100 nM. Molecule `COc1cc(-c2ccc3c(n2)C(C)N(c2cnn(CC#N)c2)C3=O)cnc1OC` (stereo not given) gave a Ki of less than 100 nM. Under `COc1cc(-c2cc(C)c3c(n2)CN(c2ccc(C(C)C)nc2)C3=O)cnc1OC` stands less than 100 nM.

`COc1ncc(-c2ccc3c(n2)C(C)N(c2cnn(CC(F)(F)F)c2)C3=O)cc1OC(F)F` (stereo not given): the Ki was less than 100 nM. Consider `COc1cc(-c2ccc3c(n2)CN(c2cnn(Cc4ccc(CO)cc4)c2)C3=O)cnc1OC`, for which the Ki was less than 100 nM.

Molecule `COc1cc(N2Cc3nc(-c4cnc(OC)c(OC)c4)ccc3C2=O)n[nH]1` returned a Ki of less than 100 nM. Under `COc1cc(-c2ccc3c(n2)CN(c2cnn(C)n2)C3=O)cnc1OC` stands less than 100 nM. Under `CCn1ccc(N2Cc3nc(-c4cnc(OC)c(OC(C)C)c4)cc(C)c3C2=O)n1` stands less than 100 nM; under `COc1cc(-c2cc(C)c3c(n2)CN(c2cnn(CC(F)(F)F)c2)C3=O)cnc1OC`, less than 100 nM; under `Cc1cc(-c2cncc(C(=O)O)c2)nc2c1C(=O)N(c1ccn([C@H]3CCOC3)n1)C2`, less than 100 nM.

By Ki is commonly meant the equilibrium dissociation constant of an inhibitor or competing ligand from its target. A higher Ki goes with a looser hold on the target.
